Test results: patent US9896441B2 (Lycera Corporation, priority 2014, dated 2018)
“And” between values parts separate entries of the source, which are not always exact repeats. Equal values may be shown once.

Each compound was assayed against T1, RORγ-LBD (Homo sapiens, UniProt P51449) (assay: RORγ-Ligand Binding Domain (LBD) TR-FRET Assay). Details: RORγ-LBD TR-FRET.
T1 construct: made in house; host or cells: SF9 cells (baculovirus); used as diluted lysate
T1 sequence (P51449 269-508 limits assumed): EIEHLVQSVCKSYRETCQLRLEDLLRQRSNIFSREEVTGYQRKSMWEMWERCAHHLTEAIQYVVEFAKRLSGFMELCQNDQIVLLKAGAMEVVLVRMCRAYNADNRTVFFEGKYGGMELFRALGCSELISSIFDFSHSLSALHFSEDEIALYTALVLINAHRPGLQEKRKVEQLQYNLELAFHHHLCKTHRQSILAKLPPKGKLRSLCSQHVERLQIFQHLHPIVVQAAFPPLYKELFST
Format: biochemical
Procedure: Assay procedures and results are described below.
HIS-tagged RORγ-LBD protein was expressed in SF9 cells using a baculovirus expression system. The lysate was diluted in assay buffer (50 mM Tris pH 7.0, 50 mM KCl, 1 mM EDTA, 0.1 mM DTT, 0.01% BSA) to obtain RORγ-LBD final concentration of ˜3 nM in a 384-well assay plate (need to titrate for each batch of protein).
A stock of biotinylated-LXXLL peptide from coactivator SRC1 (Biotin-[…]) was prepared in assay buffer and added to each well (200 nM final concentration). […] RORγ antagonist ursolic acid was also included at a final concentration of 2 μM. Compounds were diluted in DMSO and further diluted in assay buffer with a final DMSO concentration at 1%.

Compound	EC50
O=S(=O)(c1cccc(C(F)(F)F)c1)N1CCCc2cc(O[C@H]3CCc4ccccc43)ccc21 [Example 25V, (S)-6-((2,3-dihydro-1H-inden-1-yl)oxy)-1-((3-(trifluoromethyl)-phenyl)sulfonyl)-1,2,3,4-tetrahydroquinoline]	0.5 to 5 µM
O=S(=O)(c1cccc(C(F)(F)F)c1)N1CCCc2cc(Cl)c(OCc3c(F)cccc3Cl)cc21 [Example 28A]	< 0.5 µM
O=S(=O)(c1cccc(C(F)(F)F)c1)N1CCCc2cc(C3CC3)c(OCc3c(F)cccc3Cl)cc21 [Example 28B]	< 0.5 µM
O=S(=O)(c1cccc(C(F)(F)F)c1)N1CCCc2cc(C3CC3)c(OCc3c(F)cccc3C3CC3)cc21 [Example 28C]	< 0.5 µM
Cc1cc2c(cc1OCc1c(F)cccc1Cl)N(S(=O)(=O)c1cccc(C(F)(F)F)c1)CCC2 [Example 28D]	< 0.5 µM
CCn1cc(S(=O)(=O)N2C[C@H](CNC(C)=O)Oc3ccc(NCc4c(F)cccc4Cl)cc32)c(OCCO)n1 [Example 28E]	< 0.5 µM
O=S(=O)(c1cccc(C(F)(F)F)c1)N1CCCc2cc(Br)c(OCc3c(F)cccc3Cl)cc21 [Example 28F]	< 0.5 µM
CCOc1nn(CC)cc1S(=O)(=O)N1C[C@H](CNC(C)=O)Oc2ccc(NCc3c(F)cccc3Cl)cc21 [Example 28G]	< 0.5 µM
O=C(O)CC[C@H]1CN(S(=O)(=O)c2cccc(C(F)(F)F)c2)c2cc(/C=C/c3cccc4cn[nH]c34)ccc2O1 [Example 89BL, (S,E)-3-(6-(2-(1H-indazol-7-yl)vinyl)-4-((3-(trifluoromethyl)phenyl)sulfonyl)-3,4-dihydro-2H-benzo[b][1,4]oxazin-2-yl)propanoic acid]	> 10 µM
O=C(O)CC[C@H]1CN(S(=O)(=O)c2cccc(C(F)(F)F)c2)c2cc(/C=C/c3ccnn4cccc34)ccc2O1 [Example 89BM, (S,E)-3-(6-(2-(pynolo[1,2-b]pyridazin-4-yl)vinyl)-4-((3-(trifluoromethyl)phenyl)sulfonyl)-3,4-dihydro-2H-benzo[b][1,4]oxazin-2-yl)propanoic acid]	0.5 to 5 µM
Cc1noc(C)c1/C=C/c1ccc2c(c1)N(S(=O)(=O)c1cccc(C(F)(F)F)c1)C[C@H](CCC(=O)O)O2 [Example 89BR, (S,E)-3-(6-(2-(3,5-dimethylisoxazol-4-yl)vinyl)-4-((3-(trifluoromethyl)phenyl)sulfonyl)-3,4-dihydro-2H-benzo[b][1,4]-oxazin-2-yl)propanoic acid]	> 10 µM
COC(=O)CC[C@H]1CN(S(=O)(=O)c2cccc(C(F)(F)F)c2)c2cc(/C=C/c3c(C)noc3C)ccc2O1 [Example 89BS, (S,E)-methyl 3-(6-(2-(3,5-dimethylisoxazol-4-yl)vinyl)-4-((3-(trifluoromethyl)phenyl)-sulfonyl)-3,4-dihydro-2H-benzo[b][1,4]-oxazin-2-yl)propanoate]	< 0.5 µM
O=C(O)CC[C@H]1CN(S(=O)(=O)c2cccc(C(F)(F)F)c2)c2cc(/C=C/c3c[nH]nc3C(F)(F)F)ccc2O1 [Example 89BT, (S,E)-3-(6-(2-(3-(trifluoromethyl)-1H-pyrazol-4-yl)vinyl)-4-((3-(trifluoromethyl)phenyl)-sulfonyl)-3,4-dihydro-2H-benzo[b][1,4]oxazin-2-yl)propanoic acid]	> 10 µM
Cn1ccnc1/C=C/c1ccc2c(c1)N(S(=O)(=O)c1cccc(C(F)(F)F)c1)C[C@H](CCC(=O)O)O2 [Example 89BU, (S,E)-3-(6-(2-(1-methyl-1H-imidazol-2-yl)vinyl)-4-((3-(trifluoromethyl)phenyl)sulfonyl)-3,4-dihydro-2H-benzo[b][1,4]-oxazin-2-yl)propanoic acid]	5 to 10 µM
CS(=O)(=O)c1cccc(/C=C/c2ccc3c(c2)N(S(=O)(=O)c2cccc(C(F)(F)F)c2)C[C@H](CCC(=O)O)O3)c1 [Example 89BV, (S,E)-3-(6-(3-(methylsulfonyl)-styryl)-4((3-(trifluoromethyl)-phenyl)sulfonyl)-3,4-dihydro-2H-benzo[b][1,4]oxazin-2-yl)propanoic acid]	> 10 µM
CC(=O)c1cccc(/C=C/c2ccc3c(c2)N(S(=O)(=O)c2cccc(C(F)(F)F)c2)C[C@H](CCC(=O)O)O3)n1 [Example 89BX, (S,E)-3-(6-(2-(6-acetylpyridin-2-yl)vinyl)-4-((3-(trifluoromethyl)-phenyl)sulfonyl)-3,4-dihydro-2H-benzo[b][1,4]oxazin-2-yl)propanoic acid]	> 10 µM
Cn1cc(/C=C/c2ccc3c(c2)N(S(=O)(=O)c2cccc(C(F)(F)F)c2)C[C@H](CCC(=O)O)O3)c(C(F)(F)F)n1 [Example 89BY, (S,E)-3-(6-(2-(1-methyl-3-(trifluoromethyl)-1H-pyrazol-4-yl)vinyl)-4-((3-(trifluoromethyl)-phenyl)sulfonyl)-3,4-dihydro-2H-benzo[b][1,4]oxazin-2-yl)propanoic acid]	> 10 µM
CCCn1ccc(/C=C/c2ccc3c(c2)N(S(=O)(=O)c2cccc(C(F)(F)F)c2)C[C@H](CCC(=O)O)O3)n1 [Example 89BZ, (S,E)-3-(6-(2-(1-propyl-1H-pyrazol-3-yl)vinyl)-4-((3-(trifluoromethyl)phenyl)sulfonyl)-3,4-dihydro-2H-benzo[b][1,4]oxazin-2-yl)propanoic acid]	> 10 µM
O=C(O)CC[C@H]1CN(S(=O)(=O)c2cccc(C(F)(F)F)c2)c2cc(/C=C/c3c(Cl)cc(Cl)cc3Cl)ccc2O1 [Example 89CL, (S,E)-3-(6-(2,4,6-trichlorostyryl)-4-((3-(trifluoromethyl)-phenyl)sulfonyl)-3,4-dihydro-2H-benzo[b][1,4]oxazin-2-yl)propanoic acid]	0.5 to 5 µM
O=C(O)CC[C@H]1CN(S(=O)(=O)c2cccc(C(F)(F)F)c2)c2cc(/C=C/c3c(Cl)cc(OC(F)(F)F)cc3Cl)ccc2O1 [Example 89CN, (S,E)-3-(6-(2,6-dichloro-4-(trifluoromethoxy)styryl)-4-((3-(trifluoromethyl)phenyl)sulfonyl)-3,4-dihydro-2H-benzo[b][1,4]-oxazin-2-yl)propanoic acid]	0.5 to 5 µM
COC(=O)CC[C@H]1CN(S(=O)(=O)c2cccc(C(F)(F)F)c2)c2cc(/C=C/c3cccn4ccnc34)ccc2O1 [Example 89DE, methyl (S,E)-3-(6-(2-(imidazo[1,2-a]pyridin-8-yl)vinyl)-4-((3-(trifluoromethyl)-phenyl)sulfonyl)-3,4-dihydro-2H-benzo[b][1,4]oxazin-2-yl)propanoate]	< 0.5 µM and 0.5 to 5 µM
O=C(O)CC[C@H]1CN(S(=O)(=O)c2cccc(OC(F)F)c2)c2cc(/C=C/c3nccnc3Cl)ccc2O1 [Example 89DS, (S,E)-3-(6-(2-(3-chloropyrazin-2-yl)vinyl)-4-((3-(difluoromethoxy)phenyl)sulfonyl)-3,4-dihydro-2H-benzo[b][1,4]-oxazin-2-yl)propanoic acid]	> 10 µM

Same assay, conditions: with 2 μM ursolic acid (RORγ antagonist); highest test concentration 10 μM

Compound	EC50 [µM]
C/C(=C\c1ccc2c(c1)N(S(=O)(=O)c1cc(C3CC3)cnc1OCCO)C[C@H](CCC(=O)O)O2)c1c(F)cccc1Cl [Example 86BC, (S,E)-3-(6-(2-(2-chloro-6-fluorophenyl)prop-1-en-1-yl)-4-((5-cyclopropyl-2-(2-hydroxyethoxy)pyridin-3-yl)sulfonyl)-3,4-dihydro-2H-benzo[b][1,4]oxazin-2-yl)propanoic acid]	< 0.5
